Read-outs that look alike come from different tables or passages of the source. Each block holds one molecule with its values, some of them ahead of it.
Biological target: T1, BRM (Homo sapiens, UniProt P51531)
T1 construct: In-Cell Western Screen of BRM Degradation in SW1573 Cells; endogenous in cells; host or cells: SW1573
Assay: In-cell Western screen of BRM degradation in SW1573 cells (Dmax and DC50)
Type: cell-based
Method in brief: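 SW1573 cells were treated with compound overnight (18-20 h; final DMSO 0.1%), then fixed in 4% PFA, permeabilized with Triton X-100 and blocked. BRM was detected by in-cell Western using 800 nm anti-rabbit and 680 nm anti-mouse secondaries, and Dmax and DC50 were derived from the LI-COR Odyssey signal.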

[1] = BRM degradation, SW1573 cells, read-out: DC50
[2] = BRM degradation, SW1573 cells, when tested at the top concentration of between 0.3 and 10 μM, read-out: Dmax (%) (% degraded)
[3] = SW1573, % degraded, when tested at the top concentration of between 0.3 and 10 μM, read-out: BRM Dmax (%)
[4] = target protein degradation, read-out: BRM DC50
[5] = BRM degradation, SW1573 cells, Table 2D, read-out: **Dmax (%) (% degraded)
[6] = BRM degradation, SW1573 cells, Table 2D, read-out: *DC50
[7] = BRM degradation, SW1573 cells, tested at the top concentration of between 0.3 and 10 μM, read-out: Dmax (%) (% degraded)

T1 sequence (P51531 whole entry): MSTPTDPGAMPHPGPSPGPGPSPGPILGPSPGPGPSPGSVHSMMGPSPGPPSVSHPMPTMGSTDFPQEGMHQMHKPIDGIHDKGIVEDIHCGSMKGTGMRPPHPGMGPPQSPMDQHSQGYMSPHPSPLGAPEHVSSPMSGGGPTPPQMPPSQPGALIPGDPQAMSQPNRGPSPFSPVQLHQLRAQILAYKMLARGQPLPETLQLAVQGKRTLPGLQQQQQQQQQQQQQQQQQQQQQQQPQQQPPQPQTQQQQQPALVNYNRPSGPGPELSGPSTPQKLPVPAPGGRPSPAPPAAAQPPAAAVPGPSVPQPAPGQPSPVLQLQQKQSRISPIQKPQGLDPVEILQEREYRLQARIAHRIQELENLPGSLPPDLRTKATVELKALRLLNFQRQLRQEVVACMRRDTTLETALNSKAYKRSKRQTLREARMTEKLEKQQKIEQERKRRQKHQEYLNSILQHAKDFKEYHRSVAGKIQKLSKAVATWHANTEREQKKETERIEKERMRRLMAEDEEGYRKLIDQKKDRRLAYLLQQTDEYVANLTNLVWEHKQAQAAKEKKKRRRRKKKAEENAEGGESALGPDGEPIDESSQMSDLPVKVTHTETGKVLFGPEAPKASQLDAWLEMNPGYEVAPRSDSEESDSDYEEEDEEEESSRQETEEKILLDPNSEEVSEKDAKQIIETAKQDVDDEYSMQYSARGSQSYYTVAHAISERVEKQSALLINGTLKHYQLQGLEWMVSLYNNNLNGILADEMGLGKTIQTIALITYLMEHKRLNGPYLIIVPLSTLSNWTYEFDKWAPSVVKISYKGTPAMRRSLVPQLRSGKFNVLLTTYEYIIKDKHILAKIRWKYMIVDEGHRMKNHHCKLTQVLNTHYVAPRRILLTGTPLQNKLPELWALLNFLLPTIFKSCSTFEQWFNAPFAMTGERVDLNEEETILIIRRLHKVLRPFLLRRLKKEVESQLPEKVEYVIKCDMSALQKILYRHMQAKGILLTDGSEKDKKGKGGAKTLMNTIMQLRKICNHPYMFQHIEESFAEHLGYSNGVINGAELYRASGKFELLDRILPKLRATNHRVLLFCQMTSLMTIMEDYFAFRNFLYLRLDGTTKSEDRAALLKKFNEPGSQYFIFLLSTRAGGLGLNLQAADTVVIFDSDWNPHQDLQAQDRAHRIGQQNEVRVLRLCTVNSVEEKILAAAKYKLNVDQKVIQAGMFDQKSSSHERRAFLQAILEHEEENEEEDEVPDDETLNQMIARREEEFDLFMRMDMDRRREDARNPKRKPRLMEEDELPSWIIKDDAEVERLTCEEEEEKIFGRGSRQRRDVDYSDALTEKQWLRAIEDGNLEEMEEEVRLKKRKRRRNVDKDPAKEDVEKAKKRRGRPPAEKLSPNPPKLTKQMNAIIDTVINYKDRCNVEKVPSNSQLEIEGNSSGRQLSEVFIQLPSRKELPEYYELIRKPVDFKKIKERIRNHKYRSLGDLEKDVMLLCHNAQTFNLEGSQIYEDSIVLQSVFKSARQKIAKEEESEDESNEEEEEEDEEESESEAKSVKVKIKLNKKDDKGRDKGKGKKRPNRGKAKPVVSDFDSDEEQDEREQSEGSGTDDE

DC50 (BRM degradation, read-out: BRM DC50): > 30 nM
SMILES: Cc1cc([C@@H](C(=O)N2C[C@H](O)C[C@H]2C(=O)N[C@@H](COCCCCCc2cc(-c3ccccc3O)nnc2N)c2ccc(-c3scnc3C)cc2)C(C)C)on1 [compound 529, (2S,4R)-N-((R)-2-((5-(3-amino-6-(2-hydroxyphenyl)pyridazin-4-yl)pentyl)oxy)-1-(4-(4-methylthiazol-5-yl)phenyl)ethyl)-4-hydroxy-1-((S)-3-methyl-2-(3-methylisoxazol-5-yl)butanoyl)pyrrolidine-2-carboxamide]

SMILES: Cc1ncsc1-c1ccc([C@H](C)NC(=O)[C@@H]2C[C@@H](O)CN2C(=O)[C@@H](c2cc(OCCOCCOCCCCN3CC4(C3)CN(c3cc(-c5ccccc5O)nnc3N)C4)no2)C(C)C)cc1 [compound 66, (2S,4R)-1-((R)-2-(3-(2-(2-(4-(6-(3-amino-6-(2-hydroxyphenyl)pyridazin-4-yl)-2,6-diazaspiro[3.3]heptan-2-yl)butoxy)ethoxy)ethoxy)isoxazol-5-yl)-3-methylbutanoyl)-4-hydroxy-N-((S)-1-(4-(4-methylthiazol-5-yl)phenyl)ethyl)pyrrolidine-2-carboxamide]
DC50 [1]: > 30 nM
Dmax [2]: > 75%

DC50 [1]: > 30 nM
SMILES: Cc1ncsc1-c1ccc([C@H](C)NC(=O)[C@@H]2C[C@@H](O)CN2C(=O)[C@H](c2cc(OCCN3CCN(CC#CCN4CCOC5(CCN(c6cc(-c7ccccc7O)nnc6N)CC5)C4)CC3)no2)C(C)C)cc1 [compound 187, (2S,4R)-1-((S)-2-(3-(2-(4-(4-(9-(3-amino-6-(2-hydroxyphenyl)pyridazin-4-yl)-1-oxa-4,9-diazaspiro[5.5]undecan-4-yl)but-2-yn-1-yl)piperazin-1-yl)ethoxy)isoxazol-5-yl)-3-methylbutanoyl)-4-hydroxy-N-((S)-1-(4-(4-methylthiazol-5-yl)phenyl)ethyl)pyrrolidine-2-carboxamide]

SMILES: Cc1ncsc1-c1ccc([C@H](C)NC(=O)[C@@H]2C[C@@H](O)CN2C(=O)[C@@H](c2cc(N3CCN(CC4CCN(C[C@H]5C[C@H](Oc6cc(N7C8CCC7CN(c7cc(-c9ccccc9O)nnc7N)C8)ccn6)C5)CC4)CC3)no2)C(C)C)cn1 [compound 427, (2S,4R)-1-((2R)-2-(3-(4-((1-(((1r,3r)-3-((4-(3-(3-amino-6-(2-hydroxyphenyl)pyridazin-4-yl)-3,8-diazabicyclo[3.2.1]octan-8-yl)pyridin-2-yl)oxy)cyclobutyl)methyl)piperidin-4-yl)methyl)piperazin-1-yl)isoxazol-5-yl)-3-methylbutanoyl)-4-hydroxy-N-((S)-1-(6-(4-methylthiazol-5-yl)pyridin-3-yl)ethyl)pyrrolidine-2-carboxamide]
Dmax [3]: > 75%
DC50 (degradation of BRM, read-out: BRM DC50): < 2.5 nM

SMILES: Cc1ncsc1-c1ccc([C@H](C)NC(=O)[C@@H]2C[C@@H](O)CN2C(=O)[C@@H](NC(=O)COC2CN(CCN3CCN(CCCc4cc(N5C6CCC5CN(c5cc(-c7ccccc7O)nnc5N)C6)ccn4)CC3)C2)C(C)(C)C)cc1 [compound 49, (2S,4R)-1-((2S)-2-(2-((1-(2-(4-(3-(4-(3-(3-amino-6-(2-hydroxyphenyl)pyridazin-4-yl)-3,8-diazabicyclo[3.2.1]octan-8-yl)pyridin-2-yl)propyl)piperazin-1-yl)ethyl)azetidin-3-yl)oxy)acetamido)-3,3-dimethylbutanoyl)-4-hydroxy-N-((S)-1-(4-(4-methylthiazol-5-yl)phenyl)ethyl)pyrrolidine-2-carboxamide]
DC50 [1]: > 30 nM
Dmax [2]: 50 to 75%

DC50 [4]: > 30 nM
SMILES: Cc1ncsc1-c1ccc([C@H](C)NC(=O)[C@@H]2C[C@@H](O)CN2C(=O)[C@H](c2cc(N3CCC(CC4CCN(C[C@H]5C[C@H](Oc6cc(N7C8CCC7CN(c7cc(-c9ccccc9O)nnc7N)C8)ccn6)C5)CC4)CC3)no2)C(C)C)cc1 [compound 472, (2S,4R)-1-((2S)-2-(3-(4-((1-(((1r,3r)-3-((4-(3-(3-amino-6-(2-hydroxyphenyl)pyridazin-4-yl)-3,8-diazabicyclo[3.2.1]octan-8-yl)pyridin-2-yl)oxy)cyclobutyl)methyl)piperidin-4-yl)methyl)piperidin-1-yl)isoxazol-5-yl)-3-methylbutanoyl)-4-hydroxy-N-((S)-1-(4-(4-methylthiazol-5-yl)phenyl)ethyl)pyrrolidine-2-carboxamide]

SMILES: Cc1ncsc1-c1cc(F)c([C@H](C)NC(=O)[C@@H]2C[C@@H](O)CN2C(=O)[C@H](c2cc(OCCC3CCN(C[C@H]4C[C@H](Oc5cc(N6C7CCC6CN(c6cc(-c8ccccc8O)nnc6N)C7)ccn5)C4)CC3)no2)C(C)C)cc1F [compound 551, (2S,4R)-1-((2S)-2-(3-(2-(1-(((1r,3S)-3-((4-(3-(3-amino-6-(2-hydroxyphenyl)pyridazin-4-yl)-3,8-diazabicyclo[3.2.1]octan-8-yl)pyridin-2-yl)oxy)cyclobutyl)methyl)piperidin-4-yl)ethoxy)isoxazol-5-yl)-3-methylbutanoyl)-N-((S)-1-(2,5-difluoro-4-(4-methylthiazol-5-yl)phenyl)ethyl)-4-hydroxypyrrolidine-2-carboxamide]
Dmax [5]: > 75%
DC50 [6]: < 2.5 nM

SMILES: CC(C)[C@@H](C(=O)N1C[C@H](O)C[C@H]1C(=O)N[C@@H](C)c1ccc(-c2c(Cl)cnn2C)cc1)c1cc(OCCN2CCN(CCOc3cc(N4C5CCC4CN(c4cc(-c6ccccc6O)nnc4N)C5)ccn3)CC2)no1 [compound 283, (2S,4R)-1-((2R)-2-(3-(2-(4-(2-((4-(3-(3-amino-6-(2-hydroxyphenyl)pyridazin-4-yl)-3,8-diazabicyclo[3.2.1]octan-8-yl)pyridin-2-yl)oxy)ethyl)piperazin-1-yl)ethoxy)isoxazol-5-yl)-3-methylbutanoyl)-N-((S)-1-(4-(4-chloro-1-methyl-1H-pyrazol-5-yl)phenyl)ethyl)-4-hydroxypyrrolidine-2-carboxamide]
DC50 [1]: < 2.5 nM
Dmax [7]: > 75%

SMILES: Cc1ncsc1-c1ccc([C@H](C)NC(=O)[C@@H]2C[C@@H](O)CN2C(=O)[C@@H](c2cc(N3CCC(CN4CCC(OC5CC(Oc6cc(N7C8CC[C@@H]7CN(c7cc(-c9ccccc9O)nnc7N)C8)ccn6)C5)CC4)CC3)no2)C(C)C)cc1O (stereo partly drawn) [compound 691, (2S,4R)-1-((2R)-2-(3-(4-((4-((1r,3r)-3-((4-(3-(3-amino-6-(2-hydroxyphenyl)pyridazin-4-yl)-3,8-diazabicyclo[3.2.1]octan-8-yl)pyridin-2-yl)oxy)cyclobutoxy)piperidin-1-yl)methyl)piperidin-1-yl)isoxazol-5-yl)-3-methylbutanoyl)-4-hydroxy-N-((S)-1-(3-hydroxy-4-(4-methylthiazol-5-yl)phenyl)ethyl)pyrrolidine-2-carboxamide]
Dmax (% degraded) (BRM degradation, SW1573 cells): A (A > 75)
DC50 [1]: < 2.5 nM

SMILES: CC(C)[C@H](C(=O)N1C[C@H](O)C[C@H]1C(=O)N[C@@H](C)c1ccc(-n2ccnc2CO)cc1)c1cc(OCC#Cc2ccc(O[C@H]3C[C@H](Oc4cc(N5C6CCC5CN(c5cc(-c7ccccc7O)nnc5N)C6)ccn4)C3)cn2)no1 [compound 284, (2S,4R)-1-((2S)-2-(3-((3-(5-((1r,3S)-3-((4-(3-(3-amino-6-(2-hydroxyphenyl)pyridazin-4-yl)-3,8-diazabicyclo[3.2.1]octan-8-yl)pyridin-2-yl)oxy)cyclobutoxy)pyridin-2-yl)prop-2-yn-1-yl)oxy)isoxazol-5-yl)-3-methylbutanoyl)-4-hydroxy-N-((S)-1-(4-(2-(hydroxymethyl)-1H-imidazol-1-yl)phenyl)ethyl)pyrrolidine-2-carboxamide]
DC50 [1]: 10 to 30 nM
Dmax [7]: > 75%

SMILES: CC(C)[C@@H](C(=O)N1C[C@H](O)C[C@H]1C(=O)N[C@@H](C)c1ccc(C#N)cc1)c1cc(OCC#Cc2ncc(O[C@H]3C[C@H](Oc4cc(N5C6CCC5CN(c5cc(-c7ccccc7O)nnc5N)C6)ccn4)C3)cn2)no1 [compound 387, (2S,4R)-1-((2R)-2-(3-((3-(5-((1r,3R)-3-((4-(3-(3-amino-6-(2-hydroxyphenyl)pyridazin-4-yl)-3,8-diazabicyclo[3.2.1]octan-8-yl)pyridin-2-yl)oxy)cyclobutoxy)pyrimidin-2-yl)prop-2-yn-1-yl)oxy)isoxazol-5-yl)-3-methylbutanoyl)-N-((S)-1-(4-cyanophenyl)ethyl)-4-hydroxypyrrolidine-2-carboxamide]
Dmax [3]: > 75%
DC50 [4]: < 2.5 nM

SMILES: Cc1ncsc1-c1ccc([C@H](C)NC(=O)[C@@H]2C[C@@H](O)CN2C(=O)[C@@H](c2cc(OCC[C@H]3CCN(C[C@H]4C[C@H](Oc5cc(N6C7CCC6CN(c6cc(-c8ccccc8O)nnc6N)C7)ccn5)C4)[C@@H](C)[C@H]3C)no2)C(C)C)cc1 (single isomer, unassigned) [compound 586]
Dmax [5]: > 75%
DC50 [6]: < 2.5 nM

DC50 [1]: < 2.5 nM
Dmax (BRM degradation, SW1573 cells, read-out: Dmax (% degraded)): > 75%
SMILES: Cc1ncsc1-c1ccc([C@H](C)NC(=O)[C@@H]2C[C@@H](O)CN2C(=O)[C@@H](c2cc(OCCC3CCN(C[C@H]4C[C@H](C#CC(C)n5cc(-c6cc(-c7ccccc7O)nnc6N)cn5)C4)CC3)no2)C(C)C)cc1 (stereo partly drawn) [compound 632, (2S,4R)-1-((2S)-2-(3-(2-(1-(((1r,3S)-3-(3-(4-(3-amino-6-(2-hydroxyphenyl)pyridazin-4-yl)-1H-pyrazol-1-yl)but-1-yn-1-yl)cyclobutyl)methyl)piperidin-4-yl)ethoxy)isoxazol-5-yl)-3-methylbutanoyl)-4-hydroxy-N-((S)-1-(4-(4-methylthiazol-5-yl)phenyl)ethyl)pyrrolidine-2-carboxamide]

Reference: US12539292B2, “BRM targeting compounds and associated methods of use” (Arvinas Operations, Inc., priority 2018, dated 2026)
